Measurements: ChEMBL document CHEMBL5729129, “Apoptosis signal-regulating kinase 1 (ASK 1) inhibitor compounds” (2022)

Legend:
[1] = molecular target: T1, Mitogen-activated protein kinase kinase kinase 5 (Homo sapiens, UniProt Q99683); test: ADP-Glo Assay: Table 3: The ability of test compounds to inhibit ASK1 kinase activity was determined using the luminescent ADP-Glo™ Kinase Assay and Myelin Basic Protein (MBP) as a substrate (Promega Corporation, Madison, Wis.). During the kinase reaction, ASK1 utilizes ATP and generates ADP. The remaining ATP is then depleted by addition of the ADP-Glo™ reagent which also terminates the reaction. Subsequent addition of the Kinase Detection Reagent converts the ADP that was produced during the kinase reaction to ATP, and this newly synthesized ATP is converted to light using the luciferase/luciferin reactions. The assay was performed according to the manufacturer's instructions. Briefly, purified, recombinant ASK1 (amino acids 649-946) (10-20 ng/well) was added to a 384-well, F bottom, small volume, HIbase, white plate (Greiner Bio-One, Monroe, N.C. #784075) containing 1-2 μL 5× test compound or vehicle control (diluted 1:20 from a 100% DMSO stock solution into 1× Reaction Buffer A). The enzyme was allowed to pre-incubate with test compound from 15-120 min at 30° C. before the addition of the ATP/substrate mix (final concentrations of 50 μM ATP+250 ng MBP in 1× Reaction Buffer A). The mixture was then incubated at room temperature for 40 min before the addition of ADP-Glo™ reagent and a second 40 minute room temperature incubation. […]
T1 sequence (Q99683 whole entry): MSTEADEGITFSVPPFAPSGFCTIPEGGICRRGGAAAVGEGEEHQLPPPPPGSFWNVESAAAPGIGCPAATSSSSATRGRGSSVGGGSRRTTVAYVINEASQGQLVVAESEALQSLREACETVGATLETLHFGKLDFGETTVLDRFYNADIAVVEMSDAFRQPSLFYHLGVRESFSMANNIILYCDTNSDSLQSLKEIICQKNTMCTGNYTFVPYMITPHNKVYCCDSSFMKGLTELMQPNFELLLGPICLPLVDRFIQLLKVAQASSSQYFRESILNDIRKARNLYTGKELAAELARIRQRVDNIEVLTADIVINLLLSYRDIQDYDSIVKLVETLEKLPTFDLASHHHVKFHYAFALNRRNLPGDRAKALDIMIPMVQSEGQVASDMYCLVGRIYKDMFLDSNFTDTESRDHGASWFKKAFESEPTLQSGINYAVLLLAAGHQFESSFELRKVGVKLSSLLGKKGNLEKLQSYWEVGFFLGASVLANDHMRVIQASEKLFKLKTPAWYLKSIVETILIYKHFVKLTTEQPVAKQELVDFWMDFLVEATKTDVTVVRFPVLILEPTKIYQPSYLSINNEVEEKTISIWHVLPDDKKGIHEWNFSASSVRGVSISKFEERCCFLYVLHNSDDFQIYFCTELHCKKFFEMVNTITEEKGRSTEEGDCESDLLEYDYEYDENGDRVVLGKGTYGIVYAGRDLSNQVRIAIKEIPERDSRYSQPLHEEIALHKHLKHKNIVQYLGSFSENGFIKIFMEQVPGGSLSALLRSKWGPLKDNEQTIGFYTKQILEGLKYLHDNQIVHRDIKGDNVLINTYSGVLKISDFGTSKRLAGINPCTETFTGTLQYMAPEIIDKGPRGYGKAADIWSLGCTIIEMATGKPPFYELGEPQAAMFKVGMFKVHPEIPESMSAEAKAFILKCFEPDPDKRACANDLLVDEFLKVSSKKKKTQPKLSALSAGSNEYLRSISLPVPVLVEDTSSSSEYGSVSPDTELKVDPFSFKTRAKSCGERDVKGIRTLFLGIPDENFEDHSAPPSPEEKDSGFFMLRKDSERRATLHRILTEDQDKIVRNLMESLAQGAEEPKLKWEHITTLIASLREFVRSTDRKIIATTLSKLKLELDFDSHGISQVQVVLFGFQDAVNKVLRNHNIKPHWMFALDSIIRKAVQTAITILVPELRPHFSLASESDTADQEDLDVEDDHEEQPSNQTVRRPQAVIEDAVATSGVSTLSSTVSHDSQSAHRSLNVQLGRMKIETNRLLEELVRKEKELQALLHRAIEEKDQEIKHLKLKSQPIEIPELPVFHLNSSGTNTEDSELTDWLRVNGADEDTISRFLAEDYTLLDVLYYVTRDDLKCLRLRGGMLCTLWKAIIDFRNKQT

Lysyl oxidase homolog 2 = molecular target: T2, Lysyl oxidase homolog 2 (Homo sapiens, UniProt Q9Y4K0); test: Amine Oxidase Activity Assay: Table 4: LOXL2 amine oxidase activity was evaluated by measuring Amplex Red fluorescence using 10-20× concentrated conditioned media from CHO cells stably expressing human LOXL2. To assay for amine oxidase activity, 10 μL of the concentrated conditioned media was incubated with 2 μL of test compound in DMSO and 73 μL Assay Buffer (50 mM Borate Buffer, pH8) for 2 h at 37° C. After the 2 h incubation, 5 μL of 10 mM 1,5-Diaminopentane (DAP) diluted in Assay Buffer and 10 μL of Amplex Red Mix (8.5 μL Assay Buffer+0.5 μL of 10 mM Amplex Red+1 μL of 500 U/ml Horseradish Peroxidase) were added and the plate mixed and immediately placed on the FlexStation for fluorescence measurements. Fluorescence was read in kinetic mode every 2 min for 0.5-1 hour at excitation=544 and emission=590. The amine oxidase activity was calculated from the slope of the linear portion of the curve. Wells containing vehicle (DMSO) represented maximum activity and were set to 0% inhibition and wells containing 100 μM βAPN (3-aminopropionitrile) represented no activity and were set to 100% inhibition.
T2 sequence (Q9Y4K0 whole entry): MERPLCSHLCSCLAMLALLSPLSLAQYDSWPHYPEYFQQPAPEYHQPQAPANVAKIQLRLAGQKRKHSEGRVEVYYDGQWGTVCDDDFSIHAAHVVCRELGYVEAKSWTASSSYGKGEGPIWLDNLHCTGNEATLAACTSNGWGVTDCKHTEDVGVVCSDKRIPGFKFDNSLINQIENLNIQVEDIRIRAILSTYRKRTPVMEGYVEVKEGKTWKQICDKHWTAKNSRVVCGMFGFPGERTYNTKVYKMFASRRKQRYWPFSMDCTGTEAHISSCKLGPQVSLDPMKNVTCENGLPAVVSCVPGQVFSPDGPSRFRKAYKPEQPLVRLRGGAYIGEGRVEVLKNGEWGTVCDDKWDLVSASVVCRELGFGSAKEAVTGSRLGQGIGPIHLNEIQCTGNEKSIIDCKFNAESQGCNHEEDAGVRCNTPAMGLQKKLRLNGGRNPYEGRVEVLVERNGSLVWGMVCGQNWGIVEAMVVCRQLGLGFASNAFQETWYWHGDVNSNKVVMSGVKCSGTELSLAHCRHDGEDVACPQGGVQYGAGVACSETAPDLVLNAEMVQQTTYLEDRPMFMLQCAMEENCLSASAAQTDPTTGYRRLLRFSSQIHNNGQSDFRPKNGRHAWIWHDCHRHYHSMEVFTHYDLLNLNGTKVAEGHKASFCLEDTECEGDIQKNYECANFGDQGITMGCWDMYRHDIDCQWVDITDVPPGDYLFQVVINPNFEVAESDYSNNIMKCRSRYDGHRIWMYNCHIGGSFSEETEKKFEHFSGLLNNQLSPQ

SMILES: NCc1cc(Oc2ccnc(C(=O)Nc3cccc(-c4nncn4C4CC4)c3)c2)nc(C(F)(F)F)c1
- IC50 [1]: > 1000 nM
- IC50 (Lysyl oxidase homolog 2): < 300 nM
